{"source": "patent US10045978B2", "about": "(AB SCIENCE, priority 2010, dated 2018)", "key": {"[1]": {"system": "Ba/F3 cells expressing the D816V c-Kit mutation", "settings": "proliferation; cited from earlier work"}, "[2]": {"system": "Ba/F3 cells expressing human or mouse wild-type c-Kit", "settings": "stem cell factor-induced proliferation and c-Kit tyrosine phosphorylation; cited from earlier work"}, "[3]": {"system": "patients with indolent mastocytosis with handicap bearing the D816V c-Kit mutation", "assay": "Example 2 phase 2a study, safety", "format": "in vivo, human"}, "[4]": {"system": "patients with indolent forms of mastocytosis with handicap", "assay": "Example 1 phase 2a study, safety assessment"}}}
{"smiles": "Cc1ccc(NC(=O)c2ccc(CN3CCN(C)CC3)cc2)cc1Nc1nc(-c2cccnc2)cs1", "note": "[masitinib, 4-(4-methylpiperazin-1-ylmethyl)-N-[4-methyl-3-(4-pyridin-3ylthiazol-2-ylamino)phenyl]benzamide]", "values": [{"measurement": "IC50", "setting": "[1]", "result": "5000 ± 2000", "unit": "nM"}, {"measurement": "IC50", "setting": "[2]", "result": "150 ± 80", "unit": "nM"}, {"measurement": "patients with at least one adverse event suspected to be related to masitinib", "setting": "[3]; 20 patients", "result": 95, "unit": "%"}, {"measurement": "patients who discontinued treatment because of a suspected adverse event", "setting": "[3]; five patients", "result": 24, "unit": "%"}, {"measurement": "patients with suspected adverse event that led to dose reduction", "setting": "[3]; in vivo", "result": "Two"}, {"measurement": "patients with at least one serious adverse event suspected to be related to masitinib", "setting": "[3]; two patients", "result": 9, "unit": "%"}, {"measurement": "Early study discontinuation: Adverse event", "setting": "[4]; All (N = 25)", "result": "12 N, %"}, {"measurement": "incidence of skin rash", "setting": "[4]; after W12", "result": "no incidence"}, {"measurement": "At least one suspected AE", "setting": "[4]; extension phase, All (N = 17)", "result": "10 (58.8%) subjects (%)"}, {"measurement": "suspected AE: Abdominal pain", "setting": "[4]; extension phase, All (N = 17)", "result": "1 (5.9%) subjects (%)"}, {"measurement": "suspected AE: Aphthous stomatitis", "setting": "[4]; extension phase, All (N = 17)", "result": "1 (5.9%) subjects (%)"}, {"measurement": "suspected AE: Arthralgia", "setting": "[4]; extension phase, All (N = 17)", "result": "1 (5.9%) subjects (%)"}, {"measurement": "suspected AE: Blepharitis", "setting": "[4]; extension phase, All (N = 17)", "result": "1 (5.9%) subjects (%)"}, {"measurement": "suspected AE: Cytolytic hepatitis", "setting": "[4]; extension phase, All (N = 17)", "result": "1 (5.9%) subjects (%)"}, {"measurement": "suspected AE: Dermatitis psoriasiform", "setting": "[4]; extension phase, All (N = 17)", "result": "1 (5.9%) subjects (%)"}, {"measurement": "suspected AE: Eczema", "setting": "[4]; extension phase, All (N = 17)", "result": "1 (5.9%) subjects (%)"}, {"measurement": "suspected AE: Gamma-glutamyltransferase increased", "setting": "[4]; extension phase, All (N = 17)", "result": "1 (5.9%) subjects (%)"}, {"measurement": "suspected AE: Gingivitis", "setting": "[4]; extension phase, All (N = 17)", "result": "1 (5.9%) subjects (%)"}, {"measurement": "suspected AE: Muscle spasms", "setting": "[4]; extension phase, All (N = 17)", "result": "1 (5.9%) subjects (%)"}, {"measurement": "suspected AE: Vomiting", "setting": "[4]; extension phase, All (N = 17)", "result": "1 (5.9%) subjects (%)"}, {"measurement": "At least one suspected AE", "setting": "[4]; extension phase, Mild", "result": "6 (35.3%) subjects (%)"}, {"measurement": "suspected AE: Arthralgia", "setting": "[4]; extension phase, Mild", "result": "1 (5.9%) subjects (%)"}, {"measurement": "suspected AE: Blepharitis", "setting": "[4]; extension phase, Mild", "result": "1 (5.9%) subjects (%)"}, {"measurement": "suspected AE: Dermatitis psoriasiform", "setting": "[4]; extension phase, Mild", "result": "1 (5.9%) subjects (%)"}, {"measurement": "suspected AE: Edema—all categories", "setting": "[4]; extension phase, Mild", "result": "1 (5.9%) subjects (%)"}, {"measurement": "suspected AE: Gamma-glutamyltransferase increased", "setting": "[4]; extension phase, Mild", "result": "1 (5.9%) subjects (%)"}, {"measurement": "suspected AE: Gingivitis", "setting": "[4]; extension phase, Mild", "result": "1 (5.9%) subjects (%)"}, {"measurement": "suspected AE: Nausea", "setting": "[4]; extension phase, Mild", "result": "2 (11.8%) subjects (%)"}, {"measurement": "suspected AE: Nausea/Vomiting", "setting": "[4]; extension phase, Mild", "result": "2 (11.8%) subjects (%)"}, {"measurement": "At least one suspected AE", "setting": "[4]; extension phase, Moderate", "result": "5 (29.4%) subjects (%)"}, {"measurement": "suspected AE: Abdominal pain", "setting": "[4]; extension phase, Moderate", "result": "1 (5.9%) subjects (%)"}, {"measurement": "suspected AE: Cytolytic hepatitis", "setting": "[4]; extension phase, Moderate", "result": "1 (5.9%) subjects (%)"}, {"measurement": "suspected AE: Eczema", "setting": "[4]; extension phase, Moderate", "result": "1 (5.9%) subjects (%)"}, {"measurement": "suspected AE: Muscle spasms", "setting": "[4]; extension phase, Moderate", "result": "1 (5.9%) subjects (%)"}, {"measurement": "suspected AE: Nausea/Vomiting", "setting": "[4]; extension phase, Moderate", "result": "1 (5.9%) subjects (%)"}, {"measurement": "suspected AE: Vomiting", "setting": "[4]; extension phase, Moderate", "result": "1 (5.9%) subjects (%)"}, {"measurement": "At least one suspected AE", "setting": "[4]; extension phase, Severe", "result": "1 (5.9%) subjects (%)"}, {"measurement": "suspected AE: Aphthous stomatitis", "setting": "[4]; extension phase, Severe", "result": "1 (5.9%) subjects (%)"}, {"measurement": "At least one suspected AE", "setting": "[4]; initial phase, Mild", "result": "11 (44.0%) subjects (%)"}, {"measurement": "suspected AE: Abdominal pain", "setting": "[4]; initial phase, Mild", "result": "2 (8.0%) subjects (%)"}, {"measurement": "suspected AE: Diarrhea", "setting": "[4]; initial phase, Mild", "result": "1 (4.0%) subjects (%)"}, {"measurement": "suspected AE: Edema - all categories", "setting": "[4]; initial phase, Mild", "result": "3 (12.0%) subjects (%)"}, {"measurement": "suspected AE: Muscle spasms", "setting": "[4]; initial phase, Mild", "result": "1 (4.0%) subjects (%)"}, {"measurement": "suspected AE: Nausea", "setting": "[4]; initial phase, Mild", "result": "5 (20.0%) subjects (%)"}, {"measurement": "suspected AE: Nausea/Vomiting", "setting": "[4]; initial phase, Mild", "result": "6 (24.0%) subjects (%)"}, {"measurement": "suspected AE: Vomiting", "setting": "[4]; initial phase, Mild", "result": "1 (4.0%) subjects (%)"}, {"measurement": "At least one suspected AE", "setting": "[4]; initial phase, Moderate", "result": "19 (76.0%) subjects (%)"}, {"measurement": "suspected AE: Abdominal pain", "setting": "[4]; initial phase, Moderate", "result": "3 (12.0%) subjects (%)"}, {"measurement": "suspected AE: Asthaenia", "setting": "[4]; initial phase, Moderate", "result": "4 (16.0%) subjects (%)"}, {"measurement": "suspected AE: Diarrhea", "setting": "[4]; initial phase, Moderate", "result": "2 (8.0%) subjects (%)"}, {"measurement": "suspected AE: Dyspnoea", "setting": "[4]; initial phase, Moderate", "result": "3 (12.0%) subjects (%)"}, {"measurement": "suspected AE: Edema - all categories", "setting": "[4]; initial phase, Moderate", "result": "8 (32.0%) subjects (%)"}, {"measurement": "suspected AE: Eructation", "setting": "[4]; initial phase, Moderate", "result": "2 (8.0%) subjects (%)"}, {"measurement": "suspected AE: Headache", "setting": "[4]; initial phase, Moderate", "result": "5 (20.0%) subjects (%)"}, {"measurement": "suspected AE: Muscle spasms", "setting": "[4]; initial phase, Moderate", "result": "7 (28.0%) subjects (%)"}, {"measurement": "suspected AE: Nausea", "setting": "[4]; initial phase, Moderate", "result": "7 (28.0%) subjects (%)"}, {"measurement": "suspected AE: Nausea/Vomiting", "setting": "[4]; initial phase, Moderate", "result": "8 (32.0%) subjects (%)"}, {"measurement": "suspected AE: Rash - all categories", "setting": "[4]; initial phase, Moderate", "result": "6 (24.0%) subjects (%)"}, {"measurement": "suspected AE: Vomiting", "setting": "[4]; initial phase, Moderate", "result": "4 (16.0%) subjects (%)"}, {"measurement": "At least one suspected AE", "setting": "[4]; initial phase, Severe", "result": "9 (36.0%) subjects (%)"}, {"measurement": "suspected AE: Asthaenia", "setting": "[4]; initial phase, Severe", "result": "3 (12.0%) subjects (%)"}, {"measurement": "suspected AE: Diarrhea", "setting": "[4]; initial phase, Severe", "result": "1 (4.0%) subjects (%)"}, {"measurement": "suspected AE: Edema - all categories", "setting": "[4]; initial phase, Severe", "result": "2 (8.0%) subjects (%)"}, {"measurement": "suspected AE: Eructation", "setting": "[4]; initial phase, Severe", "result": "1 (4.0%) subjects (%)"}, {"measurement": "suspected AE: Muscle spasms", "setting": "[4]; initial phase, Severe", "result": "1 (4.0%) subjects (%)"}, {"measurement": "suspected AE: Nausea", "setting": "[4]; initial phase, Severe", "result": "1 (4.0%) subjects (%)"}, {"measurement": "suspected AE: Nausea/Vomiting", "setting": "[4]; initial phase, Severe", "result": "1 (4.0%) subjects (%)"}, {"measurement": "suspected AE: Rash - all categories", "setting": "[4]; initial phase, Severe", "result": "2 (8.0%) subjects (%)"}, {"measurement": "treatment-related SAEs", "setting": "[4]; one patient, two episodes of agranulocytosis at 3 mg/kg/day", "result": "Two"}, {"measurement": "patients who withdrew due to occurrence of AEs", "setting": "[4]; prior to W12, 2/25 patients", "result": 8, "unit": "%"}]}
